This is an account of results in patent publication US12304910B2, “Janus kinase (JAK) family inhibitor, preparation of same, and applications thereof” (JIANGSU VCARE PHARMATECH CO., LTD., priority 2019, dated 2025).

For one series, the target named is TYK2 (Homo sapiens, UniProt P29597). As to the kind of experiment: Kinase activity test (γ33P-ATP isotopic method), TYK2. The format is biochemical. Conditions: 33P-ATP 10 μM, 2 h reaction. The method, then:
(§1) This experiment adopted a γ^33p-ATP isotopic test method to test the inhibitory effect of a compound on kinases JAK1, JAK2, JAK3 and TYK2, and obtained a half inhibitory concentration IC50 of the compound for inhibiting activity of the kinase.
(§2) 20 mM 4-hydroxyethylpiperazine ethanesulfonic acid buffer (Hepes, pH 7.5), 10 mM magnesium chloride (MgCl2), 1 mM ethylene glycol diethyl ether diamine tetraacetic acid (EGTA), 0.02% dodecyl polyethylene glycol ether (Brij35), 0.02 mg/ml bovine serum albumin (BSA), 0.1 mM sodium vanadate (Na3VO4), 2 mM dithiothreitol (DTT), and 1% dimethylsulfoxide (DMSO).
(§3) A compound is dissolved with 100% DMSO to a specific concentration, and then subjected to gradient dilution by an automatic sampling device to obtain the samples to be tested with different concentrations (DMSO solutions).
(§4) 3.1 diluting the reaction substrate with the basic reaction buffer;
(§5) 3.2 adding the kinase into the substrate solution, and gently mixing well;
(§6) 3.3 adding, by the automatic sampling system, the 100% DMSO diluted compounds with different concentrations into the kinase solution, and incubating for 20 min at room temperature; and
(§7) 3.4 adding ^33p-ATP (10 μM, 10 μCi/μl) at room temperature to initiate the kinase reaction for a duration of 2 h.
(§8) The unreacted ATP and the reaction-generated […] in the reaction were removed by an ion exchange filtering system, and then the amount of radioactivity of ^33p isotope in the substrate was detected.
(§9) According to the amount of radioactivity, the kinase activities in the systems added with the inhibitors of different concentrations were calculated, to obtain the inhibitors' effects of the compounds of different concentrations on the kinase activity; and fitting was performed with graphpad prism to obtain the inhibitory IC50 values of the compounds.

The next series addresses T1, JAK3 (Homo sapiens, UniProt P52333).
T1 sequence (P52333 1-1124): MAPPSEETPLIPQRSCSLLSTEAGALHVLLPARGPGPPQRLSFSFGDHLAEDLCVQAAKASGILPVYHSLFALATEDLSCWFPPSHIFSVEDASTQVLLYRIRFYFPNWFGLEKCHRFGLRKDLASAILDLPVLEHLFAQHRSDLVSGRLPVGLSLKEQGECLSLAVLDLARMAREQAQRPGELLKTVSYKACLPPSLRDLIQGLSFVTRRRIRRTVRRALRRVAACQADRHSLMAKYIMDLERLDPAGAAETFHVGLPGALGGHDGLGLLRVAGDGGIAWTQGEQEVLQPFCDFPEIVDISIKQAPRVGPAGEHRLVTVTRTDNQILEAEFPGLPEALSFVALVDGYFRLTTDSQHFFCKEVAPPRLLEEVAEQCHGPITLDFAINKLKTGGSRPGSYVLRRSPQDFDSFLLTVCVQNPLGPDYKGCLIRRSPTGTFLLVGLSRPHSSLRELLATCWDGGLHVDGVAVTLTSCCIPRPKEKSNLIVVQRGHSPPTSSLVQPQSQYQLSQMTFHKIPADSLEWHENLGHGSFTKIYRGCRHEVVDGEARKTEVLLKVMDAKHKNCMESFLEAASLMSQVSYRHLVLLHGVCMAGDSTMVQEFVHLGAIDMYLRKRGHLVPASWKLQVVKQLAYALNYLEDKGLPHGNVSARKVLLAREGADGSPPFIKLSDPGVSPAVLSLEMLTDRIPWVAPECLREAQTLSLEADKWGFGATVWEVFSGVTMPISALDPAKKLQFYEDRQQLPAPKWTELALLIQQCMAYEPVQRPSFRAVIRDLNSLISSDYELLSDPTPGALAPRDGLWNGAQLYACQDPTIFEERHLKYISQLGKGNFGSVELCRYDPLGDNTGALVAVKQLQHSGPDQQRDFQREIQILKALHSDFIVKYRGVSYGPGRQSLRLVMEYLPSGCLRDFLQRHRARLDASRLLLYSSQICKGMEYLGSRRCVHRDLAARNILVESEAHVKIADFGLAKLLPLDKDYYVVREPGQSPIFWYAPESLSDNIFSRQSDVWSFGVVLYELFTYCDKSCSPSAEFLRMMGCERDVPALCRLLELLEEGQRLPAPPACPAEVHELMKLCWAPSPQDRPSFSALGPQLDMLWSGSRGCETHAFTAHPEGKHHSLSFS
As to the kind of experiment: Kinase activity test (γ33P-ATP isotopic method), JAK3. The format is biochemical. Conditions: 33P-ATP 10 μM, 2 h reaction. The protocol:
as §1, §2, §3, §4, §5, §6, §7, §8, §9

The nature of series [1]: Liver microsome test (metabolic stability). The format is in vitro ADME, human. The method, then: In an incubation system with a total volume of 250 μL, an incubation solution of hum an liver microsomes containing 0.5 mg/mL protein was formulated with a 50 mmol/L PBS buffer (pH=7.4). Before the start of incubation, 2.5 μL of a 100 μmol/L compound to be tested was mixed with 197.5 μL of the above incubation buffer, pre-incubated for 5 min in a 37° C. water bath, and then added with 50 μL of a reducing coenzyme II solution (5 mmol/L) that was likewise pre-incubated for 5 min to start a reaction (in the reaction system, the protein content of liver microsomes from various species was 0.5 g/L, and the final concentration of the compound to be tested was 1 μmol/L), incubated in a 37° C. water bath with shaking, and taken out at 0, 5, 15, 30, and 60 min respectively. 600 μL of a methanol solution of mixed positive and negative internal standards with internal standards Terfenadine (positive ion internal standard, 25 ng/mL) and Tolbutamide (negative ion internal standard, 50 ng/mL) was immediately added to terminate the reaction. The incubation solution after termination was shaken for 2 min and centrifuged (4° C., 16000 r/min) for 10 min, and the supernatant was taken for LC-MS/MS detection to quantitatively analyze the remaining amount of the parent drug. (DMSO=0.1%).
The concentration of the compound at 0 mi incubation was regarded as 100%, and the concentrations at other incubation time points were converted into the remaining percentages. The natural logarithm of the remaining percentage at each time point was linearly regressed against the incubation time, and the slope k was calculated. According to the formula T1/2=−0.693/k, the in vitro half-life was calculated. Clearance in liver microsomes (CLint (μL/min/mg protein)=Ln (2)*1000/T1/2 (min/Protein Conc (mg/ml)).
On the technique in general: Liver microsomes are vesicles of endoplasmic reticulum, rich in cytochrome P450 enzymes.

The target in the next series is JAK2 (Homo sapiens, UniProt O60674). As to the kind of experiment: Kinase activity test (γ33P-ATP isotopic method), JAK2. Conditions: 33P-ATP 10 μM, 2 h reaction. The format is biochemical. The protocol:
as §1, §2, §3, §4, §5, §6, §7, §8, §9

Where [2] appears, read: human liver microsomes, conclusion from Table 2.

Each structure is given as a SMILES string. pIC50: −log10 of the molar value.

Chain of JAK2 (O60674 whole entry): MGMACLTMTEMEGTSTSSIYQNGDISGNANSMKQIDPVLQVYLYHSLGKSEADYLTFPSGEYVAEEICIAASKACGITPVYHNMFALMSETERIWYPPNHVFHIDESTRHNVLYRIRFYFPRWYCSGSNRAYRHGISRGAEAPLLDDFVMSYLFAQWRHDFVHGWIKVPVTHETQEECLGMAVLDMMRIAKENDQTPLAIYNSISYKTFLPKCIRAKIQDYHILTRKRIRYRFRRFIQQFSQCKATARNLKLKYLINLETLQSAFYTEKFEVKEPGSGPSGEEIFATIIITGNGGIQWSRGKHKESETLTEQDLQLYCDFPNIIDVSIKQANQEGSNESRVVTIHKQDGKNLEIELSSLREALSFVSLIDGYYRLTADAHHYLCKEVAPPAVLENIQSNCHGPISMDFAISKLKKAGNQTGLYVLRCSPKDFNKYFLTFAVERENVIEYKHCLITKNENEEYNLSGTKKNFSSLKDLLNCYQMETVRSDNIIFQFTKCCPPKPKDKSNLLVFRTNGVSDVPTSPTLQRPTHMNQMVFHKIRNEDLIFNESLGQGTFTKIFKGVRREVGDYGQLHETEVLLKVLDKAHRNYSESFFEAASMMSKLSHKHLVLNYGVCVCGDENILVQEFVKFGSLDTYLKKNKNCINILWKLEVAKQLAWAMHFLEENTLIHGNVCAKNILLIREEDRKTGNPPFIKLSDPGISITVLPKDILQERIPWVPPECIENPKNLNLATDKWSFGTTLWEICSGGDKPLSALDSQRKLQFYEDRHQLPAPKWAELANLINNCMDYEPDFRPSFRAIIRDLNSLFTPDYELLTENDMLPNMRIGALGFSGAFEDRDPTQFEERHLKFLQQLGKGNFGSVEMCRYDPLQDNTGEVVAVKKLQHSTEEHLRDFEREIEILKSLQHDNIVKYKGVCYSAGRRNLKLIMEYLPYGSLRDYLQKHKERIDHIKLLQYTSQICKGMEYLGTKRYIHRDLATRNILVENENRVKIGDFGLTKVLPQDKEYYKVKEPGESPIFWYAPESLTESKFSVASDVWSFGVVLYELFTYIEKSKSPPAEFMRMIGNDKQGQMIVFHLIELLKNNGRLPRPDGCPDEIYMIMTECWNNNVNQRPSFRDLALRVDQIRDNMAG
Chain of TYK2 (P29597 whole entry): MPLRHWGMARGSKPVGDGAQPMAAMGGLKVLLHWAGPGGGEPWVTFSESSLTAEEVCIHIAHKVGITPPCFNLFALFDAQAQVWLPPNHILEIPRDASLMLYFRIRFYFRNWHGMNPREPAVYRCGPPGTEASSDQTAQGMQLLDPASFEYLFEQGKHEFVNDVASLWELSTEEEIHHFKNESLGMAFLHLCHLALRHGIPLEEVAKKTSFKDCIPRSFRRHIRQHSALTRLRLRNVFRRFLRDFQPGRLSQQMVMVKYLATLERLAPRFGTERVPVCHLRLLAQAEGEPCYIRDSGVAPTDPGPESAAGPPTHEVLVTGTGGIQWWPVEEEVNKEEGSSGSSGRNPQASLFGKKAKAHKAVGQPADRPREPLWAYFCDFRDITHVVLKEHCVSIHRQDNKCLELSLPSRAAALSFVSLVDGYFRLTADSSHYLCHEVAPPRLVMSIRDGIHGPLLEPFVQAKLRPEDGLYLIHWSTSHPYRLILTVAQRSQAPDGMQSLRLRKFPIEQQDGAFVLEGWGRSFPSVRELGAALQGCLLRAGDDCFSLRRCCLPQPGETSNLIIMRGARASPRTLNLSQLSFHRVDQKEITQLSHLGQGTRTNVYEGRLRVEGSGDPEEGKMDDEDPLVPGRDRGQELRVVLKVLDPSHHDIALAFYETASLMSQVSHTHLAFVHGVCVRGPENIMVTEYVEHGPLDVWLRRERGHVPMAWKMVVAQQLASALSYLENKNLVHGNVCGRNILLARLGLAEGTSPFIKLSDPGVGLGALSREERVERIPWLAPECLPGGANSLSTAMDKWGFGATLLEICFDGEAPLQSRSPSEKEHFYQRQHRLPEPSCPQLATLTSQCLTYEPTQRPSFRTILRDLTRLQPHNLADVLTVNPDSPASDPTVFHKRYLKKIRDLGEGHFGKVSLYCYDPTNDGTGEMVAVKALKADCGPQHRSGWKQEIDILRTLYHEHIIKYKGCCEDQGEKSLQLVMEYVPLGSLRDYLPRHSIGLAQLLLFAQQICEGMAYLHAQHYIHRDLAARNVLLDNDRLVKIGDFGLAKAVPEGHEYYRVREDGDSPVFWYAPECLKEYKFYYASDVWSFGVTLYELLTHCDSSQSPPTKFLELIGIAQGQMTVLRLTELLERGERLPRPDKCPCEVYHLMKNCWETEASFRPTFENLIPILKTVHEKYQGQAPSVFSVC

As to `NC(=O)c1cnc2[nH]ccc2c1NN1CCC[C@H](C(=O)NCC(F)F)C1` [Example 2, (S)-4-(3-(2,2-difluoroethylcarbamoyl)piperidine-1-amino)-1H-7-azaindole-5-carboxamide], the pIC50 at TYK2 was 8.83; against JAK3, 8.51; against JAK2, 8.43. In addition, the “Remaining % (60 min)” value in series [1] (human liver microsomes 0.5 mg/mL protein, compound 1 μmol/L, 37° C., 60 min) was 91.9%. For the same compound, the “metabolic half-life in liver microsomes compared with Tofacitinib (in words)” value in series [1] (setting [2]) was “significantly superior to the positive drug Tofacitinib”. Besides, in series [1] (setting [2]), the “metabolic stability in liver microsomes (in words)” value is “excellent metabolic activity in liver”. For the same compound, the half-life at 1 μmol/L in series [1] (pH 7.4, human liver microsomes 0.5 mg/mL protein, compound 1 μmol/L, 37° C.) amounted to 5.5 h. Moreover, in series [1] (pH 7.4, human liver microsomes 0.5 mg/mL protein, compound 1 μmol/L, 37° C., read-out: Clint (μL/min/mg protein)), the microsomal CLint at 1 μmol/L worked out at 4.2 µL/min/mg.

One may read the pIC50 as the negative decadic logarithm of the IC50, by convention in mol/L. Low values mean a large IC50, high ones a small IC50. For orientation: half-life means the time needed for the level to fall by half in the phase considered.
